Experimental data as given in PubChem BioAssay (NCI).
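Where inhibition never reached the appropriate level, the endpoint shown equals the highest concentration tested. Otherwise, values were interpolated linearly from a five-concentration, 48-hour dose response in 96-well plates. GI50: concentration for 50% inhibition of growth. TGI marks complete inhibition of growth.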

Experiments:
Test in all cases: inhibition of tumour cell growth, NCI panel, 48 h
[1] = tested on: HCC-2998 colon
[2] = tested on: MCF7 breast
[3] = tested on: MOLT-4 leukemia
[4] = tested on: PC-3 prostate
[5] = tested on: SN12C renal
[6] = tested on: U251 CNS
[7] = tested on: UACC-257 melanoma
[8] = tested on: UO-31 renal
[9] = tested on: SF-295 CNS
[10] = tested on: EKVX NSCLC

Structure (SMILES)	GI50 [1] [µM]	TGI [1] [µM]	GI50 [2] [µM]	TGI [2] [µM]	GI50 [3] [µM]	TGI [3] [µM]	GI50 [4] [µM]	TGI [4] [µM]	GI50 [5] [µM]	TGI [5] [µM]	GI50 [6] [µM]	TGI [6] [µM]	GI50 [7] [µM]	TGI [7] [µM]	GI50 [8] [µM]	TGI [8] [µM]	GI50 [9] [µM]	TGI [9] [µM]	TGI [10] [µM]	GI50 [10] [µM]
Fc1ccc2nc(-c3nc(-c4ccccc4)n4ccccc34)[nH]c2c1	4.11	16.9	1.37	5.59	3.6	> 100	1.82	4.24	4.5	17.9	2.22	5.42	2.16	4.76	1.75	5.15				
COc1ccc(-c2c3c(N)c4c(nc3nc3c2c(C)nn3-c2ccccc2)CCCC4)cc1	3.51	12.7	2.57	8.88	2.3	5.77	2.54	10.9	3.72	16.1	1.72	3.56	2.43	9.38	2.46	11.5	10.1	23.3		
O=C(Cc1ccccc1)C(c1ccccc1)S(=O)(=O)c1ccccc1 (stereo not given)		> 100				> 100				> 100		> 100		> 100		> 100		> 100	> 100	
COc1ccc(/C=N\Nc2nc(SCC(C)C)nc(-c3ccc(OC)cc3)c2C#N)cc1	24.7	99.4	13.8	> 100	12.9	> 100			2.1	20.4	0.988	14.9	3.35	35.7	1.5	3.73	8.58	28	86.9	12.4
Clc1ccc([I+]c2ccc(Cl)cc2Cl)c(Cl)c1			1.87	> 100	2.5	6.62	1.94	4.72	1.85	3.9	1.77	3.38	2.38	5.8	1.48	2.98	2.58	7.57		
Nc1nc(C(=O)O)c(N=Nc2ccccc2)c(=O)[nH]1				> 100		> 100		> 100		> 100		> 100		> 100		> 100		> 100	> 100	
CC1CCC2C(CN(CC3=C(C(F)(F)F)OC4OC5(C)CCC6C(C)CCC3C46OO5)CC3=C(C(F)(F)F)OC4OC5(C)CCC6C(C)CCC3C46OO5)=C(C(F)(F)F)OC3OC4(C)CCC1C32OO4 (stereo not given)			20.9	59.9	9.11	39.9	3.99	20.1	18.7	48.9	5.12	19.2	27.1	> 100	29.1	> 100			49.2	19.5
O=C(CO)C1CC2C=CC1C2 (stereo not given)						> 100				> 100		> 100		> 100		> 100		> 100	> 100	
c1ccc(-c2csc3ncn4cnnc4c23)cc1		> 100				> 100				> 100		> 100				> 100		> 100	> 100	
